The record followed here is patent publication US9452986B2, “6-heteroaryloxy- or 6-aryloxy-quinoline-2-carboxamides and method of use” (AbbVie Inc., priority 2014, dated 2016).

Structures are written as SMILES.

For the first assay, the target named is recombinant human Nav1.7 (Homo sapiens (Human), UniProt Q15858). The assay is described as follows: FRET-based membrane potential assay, recombinant human sodium channel Nav1.7. It counts as cell-based. The settings on record: HEK293 cells stably expressing recombinant human Nav1.7; veratridine + scorpion venom depolarization; read-out: FRET-Membrane Potential Nav1.7 IC50. An outline of the steps: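 Channel activation used veratridine at its EC80, set by a dilution curve each experiment, together with Leiurus scorpion venom, added 3 min after compound. Membrane-potential ratio signals from FLIPR Tetra in HEPES-buffered HBSS were fitted to a four-parameter Hill equation for percent inhibition and IC50.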
Chain of recombinant human Nav1.7 (Q15858 whole entry): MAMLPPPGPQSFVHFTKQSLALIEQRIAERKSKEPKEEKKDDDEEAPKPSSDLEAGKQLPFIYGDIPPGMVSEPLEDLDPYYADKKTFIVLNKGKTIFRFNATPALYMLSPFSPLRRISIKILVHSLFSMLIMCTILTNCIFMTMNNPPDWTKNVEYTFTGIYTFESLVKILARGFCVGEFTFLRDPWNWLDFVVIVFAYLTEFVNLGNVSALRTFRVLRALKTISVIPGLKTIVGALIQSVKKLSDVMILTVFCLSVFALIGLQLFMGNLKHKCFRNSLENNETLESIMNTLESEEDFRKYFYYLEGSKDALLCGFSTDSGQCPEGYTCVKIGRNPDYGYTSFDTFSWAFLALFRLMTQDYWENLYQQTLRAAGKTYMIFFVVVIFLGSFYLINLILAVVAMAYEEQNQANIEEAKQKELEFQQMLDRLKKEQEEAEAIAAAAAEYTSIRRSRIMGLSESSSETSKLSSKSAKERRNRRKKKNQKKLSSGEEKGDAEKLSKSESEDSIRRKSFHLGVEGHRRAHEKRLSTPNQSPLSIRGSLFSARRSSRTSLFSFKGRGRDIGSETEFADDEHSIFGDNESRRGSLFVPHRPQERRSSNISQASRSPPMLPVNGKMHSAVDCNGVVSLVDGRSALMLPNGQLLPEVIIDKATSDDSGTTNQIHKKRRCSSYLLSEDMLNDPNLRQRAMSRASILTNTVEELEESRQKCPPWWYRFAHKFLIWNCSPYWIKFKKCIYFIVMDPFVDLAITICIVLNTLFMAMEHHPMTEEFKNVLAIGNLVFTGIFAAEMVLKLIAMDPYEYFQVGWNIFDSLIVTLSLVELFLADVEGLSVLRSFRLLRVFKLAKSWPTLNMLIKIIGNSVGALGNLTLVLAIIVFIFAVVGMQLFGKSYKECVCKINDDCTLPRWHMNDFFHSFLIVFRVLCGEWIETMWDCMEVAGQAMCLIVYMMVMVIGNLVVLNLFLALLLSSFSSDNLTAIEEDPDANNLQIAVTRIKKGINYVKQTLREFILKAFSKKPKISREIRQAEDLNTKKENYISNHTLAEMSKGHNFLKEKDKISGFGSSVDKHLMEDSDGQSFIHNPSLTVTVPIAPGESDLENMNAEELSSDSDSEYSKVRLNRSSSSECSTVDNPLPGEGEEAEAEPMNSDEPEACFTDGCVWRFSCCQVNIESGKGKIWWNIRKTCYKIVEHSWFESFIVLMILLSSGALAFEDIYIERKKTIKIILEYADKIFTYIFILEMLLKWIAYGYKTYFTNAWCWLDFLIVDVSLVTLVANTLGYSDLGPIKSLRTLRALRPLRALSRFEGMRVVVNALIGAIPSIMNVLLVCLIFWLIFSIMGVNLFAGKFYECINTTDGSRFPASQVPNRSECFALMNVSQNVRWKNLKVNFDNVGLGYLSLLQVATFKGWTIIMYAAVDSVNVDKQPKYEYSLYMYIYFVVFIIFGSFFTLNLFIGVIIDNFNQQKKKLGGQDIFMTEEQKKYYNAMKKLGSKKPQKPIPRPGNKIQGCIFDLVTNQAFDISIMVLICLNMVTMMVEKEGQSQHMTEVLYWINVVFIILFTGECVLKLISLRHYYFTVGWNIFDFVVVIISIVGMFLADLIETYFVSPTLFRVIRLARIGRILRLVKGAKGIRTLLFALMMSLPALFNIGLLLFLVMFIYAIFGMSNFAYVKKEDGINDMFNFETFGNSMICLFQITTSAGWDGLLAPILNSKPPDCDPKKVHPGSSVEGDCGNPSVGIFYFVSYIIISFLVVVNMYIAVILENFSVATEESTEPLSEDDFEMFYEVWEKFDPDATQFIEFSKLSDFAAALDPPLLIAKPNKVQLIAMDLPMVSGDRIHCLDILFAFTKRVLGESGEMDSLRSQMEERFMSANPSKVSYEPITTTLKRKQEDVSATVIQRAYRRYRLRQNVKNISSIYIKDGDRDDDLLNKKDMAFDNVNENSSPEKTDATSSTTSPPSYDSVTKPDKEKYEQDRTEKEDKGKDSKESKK
Turning to `COC(C)CNC(=O)c1ccc2cc(Oc3ccc(C(F)(F)F)cn3)ccc2n1` (centres unmarked) [Example 590, N-(2-methoxypropyl)-6-{[5-(trifluoromethyl)pyridin-2-yl]oxy}quinoline-2-carboxamide], the IC50 came to 1000 nM.

Turning to `COC1(CNC(=O)c2ccc3cc(Oc4ccc(C(F)(F)F)cn4)ccc3n2)CCC1` [Example 591, N-[(1-methoxycyclobutyl)methyl]-6-{[5-(trifluoromethyl)pyridin-2-yl]oxy}quinoline-2-carboxamide], the IC50 came to 737 nM.

On to `O=C1CC(NC(=O)c2ccc3cc(Oc4ccc(C(F)F)cn4)ccc3n2)C1` [Example 592, 6-{[5-(difluoromethyl)pyridin-2-yl]oxy}-N-(3-oxocyclobutyl)quinoline-2-carboxamide], for which the IC50 came to 3440 nM.

For `N#CCCCNC(=O)c1ccc2cc(Oc3ccc(C(F)(F)F)cn3)ccc2n1` [Example 595, N-(3-cyanopropyl)-6-{[5-(trifluoromethyl)pyridin-2-yl]oxy}quinoline-2-carboxamide], the IC50 was determined as 1130 nM.

Consider `O=C(NC1CCC1)c1ccc2cc(Oc3ccc(C(F)(F)F)cn3)ccc2n1` [Example 596, N-cyclobutyl-6-{[5-(trifluoromethyl)pyridin-2-yl]oxy}quinoline-2-carboxamide], for which the IC50 was determined as 1760 nM.

For `O=C(c1ccc2cc(Oc3ccc(C(F)(F)F)cn3)ccc2n1)N1CCNCC1C(F)(F)F` (centres unmarked) [Example 598, [2-(trifluoromethyl)piperazin-1-yl](6-{[5-(trifluoromethyl)pyridin-2-yl]oxy}quinolin-2-yl)methanone], the IC50 was found to be 2980 nM.

As to `COCCCNC(=O)c1ccc2cc(Oc3ccc(C(F)(F)F)cn3)ccc2n1` [Example 599, N-(3-methoxypropyl)-6-{[5-(trifluoromethyl)pyridin-2-yl]oxy}quinoline-2-carboxamide], the IC50 is 1590 nM.

As to `O=C(NCC1CSC1)c1ccc2cc(Oc3ccc(C(F)(F)F)cn3)ccc2n1` [Example 600, N-(thietan-3-ylmethyl)-6-{[5-(trifluoromethyl)pyridin-2-yl]oxy}quinoline-2-carboxamide], the IC50 worked out at 1760 nM.

Take `O=C(NCC1C[S+]([O-])C1)c1ccc2cc(Oc3ccc(C(F)(F)F)cn3)ccc2n1` (centres unmarked) [Example 601, N-[(1-oxidothietan-3-yl)methyl]-6-{[5-(trifluoromethyl)pyridin-2-yl]oxy}quinoline-2-carboxamide]: the IC50 came to 2510 nM.

On to `O=C(NCC1CS(=O)(=O)C1)c1ccc2cc(Oc3ccc(C(F)(F)F)cn3)ccc2n1` [Example 602, N-[(1,1-dioxidothietan-3-yl)methyl]-6-{[5-(trifluoromethyl)pyridin-2-yl]oxy}quinoline-2-carboxamide], for which the IC50 turned out to be 1070 nM.

As to `O=C(NC1CC(F)C1)c1ccc2cc(Oc3ccc(C(F)(F)F)cn3)ccc2n1` (centres unmarked) [Example 604, N-(3-fluorocyclobutyl)-6-{[5-(trifluoromethyl)pyridin-2-yl]oxy}quinoline-2-carboxamide], the IC50 was found to be 3010 nM.

Take `O=C(NCCN1CCOC1=O)c1ccc2cc(Oc3ccc(C(F)(F)F)cn3)ccc2n1` [Example 605, N-[2-(2-oxo-1,3-oxazolidin-3-yl)ethyl]-6-{[5-(trifluoromethyl)pyridin-2-yl]oxy}quinoline-2-carboxamide]: the IC50 turned out to be 2880 nM.

As for `O=C(NCCc1ccccn1)c1ccc2cc(Oc3ccc(C(F)(F)F)cn3)ccc2n1` [Example 606, N-[2-(pyridin-2-yl)ethyl]-6-{[5-(trifluoromethyl)pyridin-2-yl]oxy}quinoline-2-carboxamide], the IC50 is 856 nM.

For the compound `O=C(NCCCc1ccccn1)c1ccc2cc(Oc3ccc(C(F)(F)F)cn3)ccc2n1` [Example 607, N-[3-(pyridin-2-yl)propyl]-6-{[5-(trifluoromethyl)pyridin-2-yl]oxy}quinoline-2-carboxamide], the IC50 was 910 nM.

`O=C(NCCCN1CCCC1=O)c1ccc2cc(Oc3ccc(C(F)(F)F)cn3)ccc2n1` [Example 608, N-[3-(2-oxopyrrolidin-1-yl)propyl]-6-{[5-(trifluoromethyl)pyridin-2-yl]oxy}quinoline-2-carboxamide]: the IC50 was determined as 2700 nM.

For `O=C1CC(CNC(=O)c2ccc3cc(Oc4ccc(C(F)(F)F)cn4)ccc3n2)CN1` (centres unmarked) [Example 609, N-[(5-oxopyrrolidin-3-yl)methyl]-6-{[5-(trifluoromethyl)pyridin-2-yl]oxy}quinoline-2-carboxamide], the IC50 worked out at 4500 nM.

Take `CC(=O)NCC(C)CNC(=O)c1ccc2cc(Oc3ccc(C(F)(F)F)cn3)ccc2n1` (centres unmarked) [Example 610, N-(3-acetamido-2-methylpropyl)-6-{[5-(trifluoromethyl)pyridin-2-yl]oxy}quinoline-2-carboxamide]: the IC50 worked out at 2760 nM.

On to `CC(=O)NCCCNC(=O)c1ccc2cc(Oc3ccc(C(F)(F)F)cn3)ccc2n1` [Example 613, N-(3-acetamidopropyl)-6-{[5-(trifluoromethyl)pyridin-2-yl]oxy}quinoline-2-carboxamide], for which the IC50 was 2210 nM.

On to `O=C1CCC2N1CCCN2C(=O)c1ccc2cc(Oc3ccc(C(F)(F)F)cn3)ccc2n1` (centres unmarked) [Example 614, 1-[(6-{[5-(trifluoromethyl)pyridin-2-yl]oxy}quinolin-2-yl)carbonyl]hexahydropyrrolo[1,2-a]pyrimidin-6(2H)-one], for which the 50% inhibitory concentration (IC50) is 12200 nM.

Consider `O=C(NCCC1CS(=O)(=O)C1)c1ccc2cc(Oc3ccc(C(F)(F)F)cn3)ccc2n1` [Example 615, N-[2-(1,1-dioxidothietan-3-yl)ethyl]-6-{[5-(trifluoromethyl)pyridin-2-yl]oxy}quinoline-2-carboxamide], for which the IC50 stood at 2320 nM.

Still in this assay, the particulars now being: read-out: FRET-Membrane Potential Nav1.7 IC50.
`CO[C@@H]1CCN(C(=O)c2ccc3cc(Oc4ccc(C(F)(F)F)cn4)ccc3n2)C1` [Example 588, [(3R)-3-methoxypyrrolidin-1-yl](6-{[5-(trifluoromethyl)pyridin-2-yl]oxy}quinolin-2-yl)methanone]: the IC50 is 3640 nM.

`CO[C@H]1CCN(C(=O)c2ccc3cc(Oc4ccc(C(F)(F)F)cn4)ccc3n2)C1` [Example 589, [(3S)-3-methoxypyrrolidin-1-yl](6-{[5-(trifluoromethyl)pyridin-2-yl]oxy}quinolin-2-yl)methanone]: the IC50 was 4070 nM.

`COC[C@@H]1CN(C(=O)c2ccc3cc(Oc4ccc(C(F)(F)F)cn4)ccc3n2)CCN1` [Example 593, [(3S)-3-(methoxymethyl)piperazin-1-yl](6-{[5-(trifluoromethyl)pyridin-2-yl]oxy}quinolin-2-yl)methanone]: the IC50 came out at 238 nM.

As for `O=C(c1ccc2cc(Oc3ccc(C(F)(F)F)cn3)ccc2n1)N1CCNC(C(F)F)C1` (centres unmarked) [Example 594, [3-(difluoromethyl)piperazin-1-yl](6-{[5-(trifluoromethyl)pyridin-2-yl]oxy}quinolin-2-yl)methanone], the IC50 came out at 7590 nM.

As for `CN(CCS(C)(=O)=O)C(=O)c1ccc2cc(Oc3ccc(C(F)(F)F)cn3)ccc2n1` [Example 611, N-methyl-N-[2-(methylsulfonyl)ethyl]-6-{[5-(trifluoromethyl)pyridin-2-yl]oxy}quinoline-2-carboxamide], the IC50 worked out at 4990 nM.

For the compound `CS(=O)(=O)CCCCNC(=O)c1ccc2cc(Oc3ccc(C(F)(F)F)cn3)ccc2n1` [Example 612, N-[4-(methylsulfonyl)butyl]-6-{[5-(trifluoromethyl)pyridin-2-yl]oxy}quinoline-2-carboxamide], the IC50 amounted to 2930 nM.
